The target in this assay is recombinant human SAE enzyme (Homo sapiens (Human), UniProt Q9UBT2). Description: SAE HTRF enzyme assay. The format is biochemical. The following applies: for inhibition at 0.111 µM: read-out: Percent Inhibition. Put shortly: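 Enzyme reaction: 50 mM HEPES pH 7.5, 5 mM MgCl2, 250 μM GSH, 0.05% BSA, 0.5 μM ATP, 0.01 μM Ubc9-GST, 0.125 μM Sumo-Flag, 0.11 nM SAE; 105 min, 24° C. Stop/detect, 2 h, then HTRF. % inh or IC50.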
A general note: TR-FRET usually uses a lanthanide donor and a delayed reading to cut background.

[1] abbreviates: SAE inhibition at compound concentration 0.111 μM.
The mark [2] stands for this setting: SAE inhibition, class symbols, legend in nM.

A word on the IC50: it is the concentration at which inhibition is half-maximal. What is called inhibition is the change of the read-out against control, counted positive when it falls.

Sequence of recombinant human SAE enzyme (Q9UBT2 whole entry): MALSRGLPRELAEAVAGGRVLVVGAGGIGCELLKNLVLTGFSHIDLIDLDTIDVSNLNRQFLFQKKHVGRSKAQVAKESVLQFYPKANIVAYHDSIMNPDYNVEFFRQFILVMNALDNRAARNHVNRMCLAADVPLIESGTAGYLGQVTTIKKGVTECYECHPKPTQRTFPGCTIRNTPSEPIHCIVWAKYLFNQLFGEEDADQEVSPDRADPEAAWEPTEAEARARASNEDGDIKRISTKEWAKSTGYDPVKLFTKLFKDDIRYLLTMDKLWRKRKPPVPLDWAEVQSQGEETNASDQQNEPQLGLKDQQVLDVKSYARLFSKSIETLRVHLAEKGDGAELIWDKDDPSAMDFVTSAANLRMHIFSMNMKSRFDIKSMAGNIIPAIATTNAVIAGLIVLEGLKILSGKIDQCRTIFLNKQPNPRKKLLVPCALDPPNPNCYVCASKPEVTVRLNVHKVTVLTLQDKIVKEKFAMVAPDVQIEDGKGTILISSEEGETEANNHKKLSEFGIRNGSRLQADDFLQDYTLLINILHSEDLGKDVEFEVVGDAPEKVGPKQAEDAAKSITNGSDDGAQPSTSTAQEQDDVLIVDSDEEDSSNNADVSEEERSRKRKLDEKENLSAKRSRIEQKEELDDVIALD
Sequence of recombinant human SAE enzyme (Q9UBE0 whole entry partner): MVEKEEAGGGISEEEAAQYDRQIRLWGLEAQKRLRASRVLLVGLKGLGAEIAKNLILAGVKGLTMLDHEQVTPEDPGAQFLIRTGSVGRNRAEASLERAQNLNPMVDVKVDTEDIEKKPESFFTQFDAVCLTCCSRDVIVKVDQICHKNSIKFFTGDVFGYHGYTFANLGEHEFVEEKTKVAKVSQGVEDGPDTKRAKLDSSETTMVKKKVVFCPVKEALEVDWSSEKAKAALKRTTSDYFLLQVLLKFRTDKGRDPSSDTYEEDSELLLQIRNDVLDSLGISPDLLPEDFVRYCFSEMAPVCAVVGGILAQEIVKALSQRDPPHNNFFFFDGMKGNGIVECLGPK

Take `Cc1sc(C(=O)c2cncnc2N[C@@H]2C[C@H](COS(N)(=O)=O)[C@@H](O)C2)cc1[C@H]1OCOc2ccccc21` (mixture of isomers) [I-280, [(1R,2S,4R)-4-{[5-({4-[(4R)-4H-1,3-benzodioxin-4-yl]-5-methyl-2-thienyl}carbonyl)pyrimidin-4-yl]amino}-2-hydroxycyclopentyl]methyl sulfamate and [(1R,2S,4R)-4-{[5-({4-[(4S)-4H-1,3-benzodioxin-4-yl]-5-methyl-2-thienyl}carbonyl)pyrimidin-4-yl]amino}-2-hydroxycyclopentyl]methyl sulfamate]: the “Percent Inhibition” value under setting [1] is reported as 98%. Further, under setting [2], the 50% inhibitory concentration (IC50) was below 10 nM.

`Cc1sc(C(=O)c2cncnc2N[C@@H]2C[C@H](COS(N)(=O)=O)[C@@H](O)[C@@H]2F)cc1[C@H]1OCCc2ccc(Cl)cc21` (mixture of isomers) [I-264, [(1R,2R,3R,4R)-4-{[5-({4-[(1S)-7-chloro-3,4-dihydro-1H-isochromen-1-yl]-5-methyl-2-thienyl}carbonyl)pyrimidin-4-yl]amino}-3-fluoro-2-hydroxycyclopentyl]methyl sulfamate and [(1R,2R,3R,4R)-4-{[5-({4-[(1R)-7-chloro-3,4-dihydro-1H-isochromen-1-yl]-5-methyl-2-thienyl}carbonyl)pyrimidin-4-yl]amino}-3-fluoro-2-hydroxycyclopentyl]methyl sulfamate]: for the setting “Concentration 0.111 μM”, the “Percent Inhibition” value came to 100. Moreover, for the setting “class symbols A/B/C”, the IC50 is below 10 nM.

As to `NS(=O)(=O)OC[C@H]1C[C@@H](Nc2ncncc2C(=O)c2cc(CN3CCN(c4ccccc4)CC3)cs2)C[C@@H]1O` [I-241, [(1R,2S,4R)-2-hydroxy-4-{[5-({4-[(4-phenylpiperazin-1-yl)methyl]-2-thienyl}carbonyl)pyrimidin-4-yl]amino}cyclopentyl]methyl sulfamate], the inhibition at 0.111 µM (Concentration 0.111 μM) was 18%. Also, under “class symbols A/B/C”, the IC50 was 100 to 1000 nM.

`CC(=O)c1csc(C(=O)c2cncnc2N[C@@H]2C[C@H](COS(N)(=O)=O)[C@@H](O)C2)c1` [I-229, [(1R,2S,4R)-4-{(5-[(4-Acetyl-2-thienyl)carbonyl]pyrimidin-4-yl}amino)-2-hydroxycyclopentyl]methyl sulfamate]: where the note is “Concentration 0.111 μM”, the inhibition at 0.111 µM was found to be 25%. Further, the half-inhibitory concentration (IC50) (class symbols A/B/C) was 100 to 1000 nM.

As to `CN1CCc2ccc(Cl)cc2[C@@H]1c1cc(C(=O)c2cncnc2N[C@@H]2C[C@H](COS(N)(=O)=O)[C@@H](O)C2)sc1Cl` (single isomer, unassigned) [I-311a, [(1R,2S,4R)-4-{[5-({5-chloro-4-[(1R)-7-chloro-2-methyl-1,2,3,4-tetrahydroisoquinolin-1-yl]-2-thienyl}carbonyl)pyrimidin-4-yl]amino}-2-hydroxycyclopentyl]methyl sulfamate or [(1R,2S,4R)-4-{[5-({5-chloro-4-[(1S)-7-chloro-2-methyl-1,2,3,4-tetrahydroisoquinolin-1-yl]-2-thienyl}carbonyl)pyrimidin-4-yl]amino}-2-hydroxycyclopentyl]methyl sulfamate], under setting [1], the “Percent Inhibition” value was determined as 65%. For the same compound, the 50% inhibitory concentration (IC50) under setting [2] lay in the range of 10 to 100 nM.

Consider `C[C@](O)(c1ccccc1)c1coc(C(=O)c2cncnc2N[C@@H]2C[C@H](COS(N)(=O)=O)[C@@H](O)C2)c1` (single isomer, unassigned) [I-58a, {(1R,2S,4R)-2-hydroxy-4-[(5-{4-[(1S)-1-hydroxy-1-phenylethyl]-2-furoyl}pyrimidin-4-yl)amino]cyclopentyl}methyl sulfamate or {(1R,2S,4R)-2-hydroxy-4-[(5-{4-[(1R)-1-hydroxy-1-phenylethyl]-2-furoyl}pyrimidin-4-yl)amino]cyclopentyl}methyl sulfamate], for which, under “Concentration 0.111 μM”, the “Percent Inhibition” value worked out at 87. Besides, the half-maximal inhibitory concentration (IC50) (class symbols A/B/C) was 10 to 100 nM.

The record behind these values is patent US10780090B2, “Heteroaryl compounds useful as inhibitors of SUMO activating enzyme” (Millennium Pharmaceuticals, Inc., priority 2014, dated 2020).
